We go through two molecules from patent publication US11052086B2, “2-anilinopyrimidine derivatives as therapeutic agents for treatment of brain cancers” (Beta Pharma, Inc., priority 2016, dated 2021).

For series [1], the system named is NCI-H1975-Luc cells. As to the kind of experiment: Intracranially implanted NCI-H1975-Luc tumor efficacy study in mice (BLI and survival). The class given is in vivo. Here is the method: N-(2-(2-(Dimethylamino)ethoxy)-4-methoxy-5-((4-(1-methyl-1H-indol-3-yl)pyrimidin-2-yl)amino)phenyl)acrylamide methanesulfonate (1⋅Ms; C27H30N6O3.1.06 CH3SO3H. MW=486.58, FW=588.45, purity=100%) was formulated in a vehicle of 1% polysorbate 80 in water. The complete vehicle was added to the pre-weighed compound to achieve a 5 mg/mL stock solution, suitable for treatment of the 50 mg/kg dose level. The mixture was vortexed for approximately one minute resulting in a light yellow solution with a pH value of 7. The dosing solution was prepared fresh daily.
Female Envigo Nude mice (Hsd:Athymic Nude-Foxn1^nu) were used. They were 6-7 weeks old on Day 1 of the experiment. The animals were fed irradiated Harlan 2918.15 Rodent Diet and water ad libitum. Animals were housed in static cages with Bed-O'Cobs™ bedding inside Biobubble® Clean Rooms that provide H. E. P. A filtered air into the bubble environment at 100 complete air changes per hour. All treatments, body weight determinations, and tumor measurements were carried out in the bubble environment. The environment was controlled to a temperature range of 70±2 OF and a humidity range of 30-70%.
NCI-H1975-Luc cells were obtained from Clovis. They were grown in RPMI 1640 medium which was modified with 1 mM Na pyruvate+2 mM L-glutamine+10 mM HEPES+2.5 g/L glucose+5 ug/mL blasticidin and supplemented with 10% non-heat-inactivated Fetal Bovine Serum (FBS) and 1% 100× Penicillin/Streptomycin/L-Glutamine (PSG). The growth environment was maintained in an incubator with a 5% CO2 atmosphere at 37° C. When expansion was complete, the cells (passage 4) were trypsinized using 0.25% trypsin-EDTA solution. Following cell detachment, the trypsin was inactivated by dilution with complete growth medium and any clumps of cells were separated by pipetting. The cells were centrifuged at 200 ref for 8 minutes at 4° C. the supernatant was aspirated, and the pellet was re-suspended in cold Dulbecco's Phosphate Buffered Saline (DPBS) by pipetting. An aliquot of the homogeneous cell suspension was diluted in a trypan blue solution and counted using a Luna automated cell counter to determine a pre-implantation cell viability. The cell suspension was centrifuged at 200 ref for 8 minutes at 4° C. The supernatant was aspirated and the cell pellet was re-suspended in cold serum-free medium to generate a final concentration of 1.00E+08 trypan-excluding cells/mL. The cell suspension was maintained on wet ice during implantation. Following implantation, an aliquot of the remaining cells was diluted with a trypan blue solution and counted to determine the post-implantation cell viability.
Test mice were implanted intracranially on Day 0 with 1.00E+06 cells per 10 μL as per the protocol (Appendix 1). For aseptic surgical implantation, mice were injected with 0.2 mg/kg buprenorphine and anesthetized using 2% isoflurane in air. The mice were then secured in a stereotaxic frame (ASI instruments, Inc.) using non-rupture ear bars. Ocular ointment was applied to the eyes of the mice to prevent drying during surgery. A re-circulating 37° C. water heated pad was used to maintain the animal's body temperature during the implantation procedure. Once in the stereotaxic frame, the cranium was swabbed with alternating chlorhexidine solution and 70% ethanol-saturated swabs to disinfect the skin surface and prepare for the incision. A 1 cm longitudinal incision was made centrally over bregma of the cranium using a #15 BD scalpel blade. The incision was retracted using small, serrated serrefines. The thin layer of connective tissue covering the surface of the skull was removed using dry cotton swabs under light pressure. Bleeding vessels were cauterized to prevent blood loss. A 0.9 mm drill bit was then centered over bregma, moved 2 mm right lateral, 1 mm anterior to the coronal suture and lowered to score the surface of the skull using the stereotaxic electrode manipulator arm. […]

Series [2] in a line: Pharmacokinetics in male SD rats dosed PO (plasma and brain). The class given is in vivo, rat. The settings on record: male SD rats PO 5 mg/kg; for Cmax: 0.5% methylcellulose vehicle; for MRT inf: read-out: MRT0-inf; for MRT last: read-out: MRT0-last.
The test system of series [3] is kinase domain of the T790M double mutant. Kind of series: Inhibition of EGFR T790M double mutant kinase domain. The class given is biochemical. The conditions noted are these: in addition to the activating mutations.
Setting [4] is: 50 mg/kg, PO, QD×14 (Days 5-18).

Read-outs that look alike come from different tables or passages of the source.

On to `C=CC(=O)Nc1cc(Nc2nccc(-c3cn(C)c4ccccc34)n2)c(OC)cc1OCCN(C)C` [1⋅Ms, N-(2-(2-(Dimethylamino)ethoxy)-4-methoxy-5-((4-(1-methyl-1H-indol-3-yl)pyrimidin-2-yl)amino)phenyl)acrylamide methanesulfonate], for which the increase in lifespan in series [1] (setting [4]) amounted to 15 days. The “BLI derived Day 13 % T/C” value in series [1] (50 mg/kg, PO, QD×14 (Days 5-18), median BLI signal treated/control ×100, P<0.05) is listed as 1%. Moreover, the “% ILS (life-span increase vs. vehicle)” value in series [1] (50 mg/kg, PO, QD×14 (Days 5-18), methanesulfonate) came out at 107%. This molecule also gave a median lifespan in series [1] (50 mg/kg, PO, QD×14 (Days 5-18), p<0.001) of 29.0 days. In series [1] (50 mg/kg, PO, QD×14 in nude mice), the tolerability of treatment result is “well-tolerated”. The “animals with complete regressions” value in series [1] (By Day 18, 50 mg/kg PO QD×14, CR = BLI below 2.0E+05 photons/sec) is reported as “none”. Moreover, the “animals with partial tumor regressions” value in series [1] (By Day 18, 50 mg/kg PO QD×14, PR = ≥50% decrease in tumor BLI signal) is reported as 100%. In series [2] (Brain), this molecule registered an AUC0-inf of 5085 ng·h/g, an AUC0-last of 5047 ng·h/g, an AUCExtra of 0.746% and an AUMCExtra of 2.57%. For the same molecule, the Tlast in series [2] (Brain) is reported as 18.0 h. Moreover, in series [2] (Plasma), the AUCExtra is listed as 0.593%, the AUMCExtra was 2.42% and the Tlast turned out to be 18.0 h. Also, the Kp in series [2] (rat, Brain (vs plasma), read-out: AUC Ratio) is 9.44. Besides, in series [2] (rat, Brain), the Tmax was 2 h, the half-life is 2.01 h, the concentration peaked (Cmax) at 606 ng/g and the MRT inf was determined as 6.07 h. Besides, in series [2] (rat, Brain), the MRT last was 5.95 h. Besides, in series [2] (rat, Plasma), the AUC(0-t) came to 535 ng·h/mL, the Tmax was 2 h, the half-life is 1.97 h and the Cmax was found to be 96.3 ng/mL. In addition, in series [2] (rat, Plasma), the MRT inf came to 5.1 h and the MRT last stood at 5.01 h. Besides, the AUC0-inf in series [2] (rat, Plasma, read-out: AUC0-inf) was 538 ng·h/mL.

For `C=CC(=O)Nc1cc(Nc2nccc(-c3cn(C)c4ccccc34)n2)c(OC)cc1OCCN(C)C` [Compound 1], the “inhibition of the kinase domain of the T790M double mutant” value in series [3] is listed as “effectively inhibits”. Further, the “% ILS (life-span increase vs. vehicle)” value in series [1] (setting [4]) is on record as “greater than 100%”.
